Laboratory results as given in PubChem BioAssay (NCI).
Where “and” joins values, the source holds several entries; their conditions need not be identical. Equal entries are not always repeated.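 Following 48 hours of exposure in 96-well plates, responses at five concentrations were used to interpolate endpoints linearly. The concentration for 50% growth inhibition is given as GI50. Definition used: TGI = concentration required for complete inhibition of growth.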

Tests used:
Experiment in all cases: inhibition of tumour cell growth, NCI panel, 48 h
IGROV1 ovarian = system: IGROV1 ovarian
HCC-2998 colon = system: HCC-2998 colon
SR leukemia = system: SR leukemia
SK-OV-3 ovarian = system: SK-OV-3 ovarian
A549 NSCLC = system: A549 NSCLC
786-0 renal = system: 786-0 renal
ACHN renal = system: ACHN renal
OVCAR-5 ovarian = system: OVCAR-5 ovarian
LOX IMVI melanoma = system: LOX IMVI melanoma
OVCAR-8 ovarian = system: OVCAR-8 ovarian

Row | Compound | GI50 (IGROV1 ovarian) | TGI (IGROV1 ovarian) | GI50 (HCC-2998 colon) | TGI (HCC-2998 colon) | GI50 (SR leukemia) | TGI (SR leukemia) | GI50 (SK-OV-3 ovarian) | TGI (SK-OV-3 ovarian) | GI50 (A549 NSCLC) | TGI (A549 NSCLC) | GI50 (786-0 renal) | TGI (786-0 renal) | GI50 (ACHN renal) | TGI (ACHN renal) | GI50 (OVCAR-5 ovarian) | TGI (OVCAR-5 ovarian) | GI50 (LOX IMVI melanoma) | TGI (LOX IMVI melanoma) | GI50 (OVCAR-8 ovarian) | TGI (OVCAR-8 ovarian)
1 | O=C1NC(=NCc2cccs2)SC1Cc1ccc2ncccc2c1 (stereo not given) | > 16.5 µM | > 25 µM | > 25 µM | > 25 µM | 8.86 µM | > 25 µM | > 25 µM | > 25 µM | 18.5 µM | > 25 µM | > 24.1 µM | > 25 µM | 24.7 µM | > 25 µM | > 25 µM | > 25 µM | 19.2 µM | > 25 µM | > 25 µM | > 25 µM
2 | COC1=C(OC)C(=O)C(/C=C(\C)C(=O)O)=C(C)C1=O | > 100 µM | > 100 µM | > 100 µM | > 100 µM | > 100 µM | > 100 µM | > 100 µM | > 100 µM | > 100 µM | > 100 µM | > 100 µM | > 100 µM | > 100 µM | > 100 µM | > 100 µM | > 100 µM | > 100 µM | > 100 µM | > 100 µM | > 100 µM
3 | CCC(=O)C1=C(OC(C)=O)C2Cc3c(n(C)c4ccccc34)C(C1)N2C (stereo not given) | – | > 100 µM | – | > 100 µM | – | > 100 µM | – | > 100 µM | – | > 100 µM | – | 66.4 µM | – | > 100 µM | – | > 100 µM | – | > 100 µM | – | 41.6 µM
4 | CC1C2Cc3ccc(O)cc3C1(C)CCN2C (stereo not given) | – | > 100 µM | – | > 100 µM | – | > 100 µM | – | > 100 µM | – | > 100 µM | – | > 100 µM | – | > 100 µM | – | > 100 µM | – | > 100 µM | – | > 100 µM
5 | Oc1nc(NCCc2ccccc2)sc1/C=C1\C=Nc2ncccc21 | 2.51 µM and 3.03 µM | 18 µM and 50.4 µM | 3.6 µM and 6.06 µM | 13.2 µM and 24.3 µM | 0.397 µM and 0.554 µM | 17.7 µM and 7.79 µM | 2.08 µM and 2.77 µM | 15.2 µM and 9.07 µM | 3.18 µM and 3.67 µM | 12.5 µM and 14.6 µM | 3.03 µM and 3.02 µM | 11.2 µM and 9.85 µM | 2.45 µM and 2.7 µM | 19.1 µM and 10.8 µM | 2.94 µM and 2.93 µM | 27.8 µM and 16.9 µM | 2.36 µM and 2.61 µM | 10.6 µM and 9.37 µM | 2.91 µM and 3.12 µM | 13.4 µM and 14.8 µM
6 | Nc1nc(N)c2cc(CNc3ccc(Cl)c(Cl)c3)ccc2n1 | 0.579 µM | 1.92 µM | 0.64 µM | 2 µM | 0.445 µM | 1.93 µM | 1.28 µM | 2.53 µM | 0.0631 µM | 1.34 µM | 0.391 µM | 1.73 µM | 0.495 µM | 1.71 µM | 0.756 µM | 2.05 µM | 0.146 µM | 1.55 µM | 0.513 µM | 1.75 µM
7 | CCCCCCN(CCCCCC)CCCNc1nccc2ccccc12 | 1.89 µM | 4.75 µM | 1.98 µM | 3.75 µM | 1.65 µM | 4.6 µM | 2.09 µM | 5.03 µM | 2.64 µM | 7.98 µM | 1.81 µM | 3.98 µM | 1.9 µM | 4.47 µM | 1.63 µM | 4.3 µM | 1.43 µM | 2.94 µM | 1.67 µM | 3.19 µM
8 | CC(C)(O)[C@@H]1CCC(C)([C@H]2[C@@H](O)CC3(C)C4CC(OC5OC(CO)C(O)C(O)C5O)C5C(C)(C)[C@@H](OC6OCC(O)C(O)C6O)CC[C@@]56C[C@@]46CC[C@]23C)O1 (stereo not given in full) | – | > 100 µM | – | > 100 µM | – | > 100 µM | – | > 100 µM | – | > 100 µM | – | > 100 µM | – | > 100 µM | – | > 100 µM | – | > 100 µM | – | > 100 µM
